This passage reports Ki results from ChEMBL document CHEMBL1129708, “Design and synthesis of ring-constrained boropeptide thrombin inhibitors” (Bioorg Med Chem Lett, 1996).

The assay has as its target Prothrombin (Homo sapiens, UniProt P00734). Nature of the assay: Compound was evaluated for the inhibitory activity against thrombin.
By Ki is commonly meant a measure of affinity in units of concentration, obtained from inhibition or displacement. Lower therefore signals tighter binding. Turning to `NCCCC[C@H](NC(=O)[C@@H]1CCCN1C(=O)CCc1cccc(C(F)(F)F)c1)B(O)O`, the Ki is 0.78 nM.

Compound `CC(C)(C)OC(=O)N1C[C@H](C(=O)N2CCC[C@H]2C(=O)N[C@@H](CCCCN)B2O[C@@H]3C[C@@H]4C[C@@H](C4(C)C)[C@]3(C)O2)[C@@H](c2cccc(C(F)(F)F)c2)C1` gave a Ki of 3.1 nM.

Take `CC1(C)[C@@H]2C[C@H]3OB([C@H](CCCCN)NC(=O)[C@@H]4CCCN4C(=O)[C@@H]4CNC[C@H]4c4cccc(C(F)(F)F)c4)O[C@@]3(C)[C@H]1C2`: the Ki is 0.5 nM.

On to `CC(C)(C)OC(=O)N1C[C@@H](C(=O)N2CCC[C@H]2C(=O)N[C@@H](CCCCN)B2O[C@@H]3C[C@@H]4C[C@@H](C4(C)C)[C@]3(C)O2)[C@H](c2cccc(C(F)(F)F)c2)C1`, for which the Ki is 0.32 nM.

As to `NCCCC[C@H](NC(=O)[C@@H]1CCCN1C(=O)CCc1ccccc1)B(O)O`, the Ki came out at 0.8 nM.

`CC1(C)[C@@H]2C[C@H]3OB([C@H](CCCCN)NC(=O)[C@@H]4CCCN4C(=O)[C@H]4CNC[C@@H]4c4cccc(C(F)(F)F)c4)O[C@@]3(C)[C@H]1C2`: the Ki was 5.6 nM.

Take `NCCC[C@H](NC(=O)[C@@H]1CCCN1C(=O)[C@@H]1CCCC[C@H]1c1ccccc1)B(O)O`: the Ki amounted to 0.46 nM.

Take `CC12OB(C(CCCCN)NC(=O)[C@@H]3CCCN3C(=O)[C@H]3CCCC[C@@H]3c3ccccc3)OC1C[C@@H]1C[C@H]2C1(C)C` (stereo partly drawn): the Ki worked out at 30 nM.
